Legend:
[1] = tested on: Candida albicans ATCC 90028; experiment: In vitro antifungal activity, MIC by microdilution (NCCLS M27-A)
Protocol: (§1) In vitro antifungal activities of the compounds were evaluated on the collection of fungal strains deposited at the Department of Biological and Medical Sciences, Faculty of Pharmacy, Charles University, Czech Republic. All the isolates were maintained on Sabouraud dextrose agar prior to being tested.
(§2) Minimum inhibitory concentrations (MICs) were determined by the microdilution format of the NCCLS M27-A guidelines. […] RPMI 1640 (Sevapharma, Prague) medium supplemented with L-glutamine and buffered with 0.165 M morpholinepropanesulfonic acid to pH 7.0 was used as the test medium. The wells of the microdilution tray contained 100 μl of the RPMI 1640 medium with 2-fold serial dilutions of the compounds (1000 to 0.24 μmol/l for the new compounds) and 100 μl of inoculum suspension. Fungal inoculum in RPMI 1640 was prepared to give a final concentration of 5×103±0.2 cfu·ml-1. The trays were incubated at 35° C. and MICs were read visually for filamentous fungi and photometrically for yeasts as an optical density (OD) at 540 nm after 24 h and 48 h. The MICs were defined as 80% inhibition of the growth of control. MICs were determined twice and in duplicate. The deviations from the usually obtained were no higher than the nearest concentration value up and down the dilution scale.

[2] = tested on: Staphylococcus aureus CCM 4516/08; experiment: Screen against bacteria, MIC/IC80; assay type: cell-based; conditions: SA
[3] = tested on: Staphylococcus epidermidis H 6966/08; experiment: Screen against bacteria, MIC/IC80; assay type: cell-based; conditions: SE
[4] = tested on: Klebsiella pneumoniae D 11750/08; experiment: Screen against bacteria, MIC/IC80; assay type: cell-based; conditions: KP
Candida glabrata 20/l = experiment: In vitro antifungal activity, MIC by microdilution (NCCLS M27-A); conditions: CG
[5] = tested on: Aspergillus fumigatus 231; experiment: as above; conditions: AF
Protocol: as §1, §2

Candida krusei ATCC 6258 = experiment: as above
Protocol: as §1, §2

[6] = tested on: Enterococcus sp. J 14365/08; experiment: Screen against bacteria, MIC/IC80; assay type: cell-based; conditions: EF
Absidia corymbifera 272 = experiment: In vitro antifungal activity, MIC by microdilution (NCCLS M27-A); conditions: AC
Protocol: as §1, §2

[7] = tested on: Klebsiella pneumoniae J 14368/08 ESBL-positive; experiment: Screen against bacteria, MIC/IC80; assay type: cell-based; conditions: KP-E
[8] = tested on: Staphylococcus aureus H 5996/08 Methiciline-resistant; experiment: Screen against bacteria, MIC/IC80; assay type: cell-based; conditions: MRSA
Escherichia coli CCM4517 = experiment: Screen against bacteria, MIC/IC80; assay type: cell-based; conditions: EC
[9] = tested on: Candida albicans ATCC 44859; experiment: In vitro antifungal activity, MIC by microdilution (NCCLS M27-A)
Protocol: as §1, §2

Candida tropicalis 156 = experiment: as above; conditions: CT
[10] = tested on: Candida lusitaniae 2446/l; experiment: as above; conditions: CL
[11] = tested on: Trichophyton mentagrophytes 445; experiment: as above; conditions: TM
[12] = tested on: Candida parapsilosis ATCC 22019; experiment: as above; conditions: CP
Protocol: as §1, §2

[13] = tested on: Pseudomonas aeruginosa CCM 1961; experiment: Screen against bacteria, MIC/IC80; assay type: cell-based; conditions: PA
Candida krusei E28 = experiment: In vitro antifungal activity, MIC by microdilution (NCCLS M27-A)
Protocol: All the isolates were maintained on Sabouraud dextrose agar prior to being tested.
as §2

Measured: MIC/IC80

COC(=O)C(OC(=O)C[n+]1ccn(C)c1)c1ccccc1 (stereo not drawn) [KG89, RS-3-methyl-1-[1-(methoxycarbonyl)-1-phenylmethoxycarbonylmethyl]imidazolium bromide]
>1000 µM: [1]; CA2, 24 h | [1]; CA2, 48 h | [2]; 24 h | [2]; 48 h | [3]; 24 h | [3]; 48 h | [4]; 24 h | [4]; 48 h | Candida glabrata 20/l; 24 h | Candida glabrata 20/l; 48 h | [5]; 24 h | [5]; 48 h | Candida krusei ATCC 6258; CK1, 24 h | Candida krusei ATCC 6258; CK1, 48 h | [6]; 24 h | [6]; 48 h | Absidia corymbifera 272; 24 h | Absidia corymbifera 272; 48 h | [7]; 24 h | [7]; 48 h | [8]; 24 h | [8]; 48 h | Escherichia coli CCM4517; 24 h | Escherichia coli CCM4517; 48 h | [9]; CA1, 24 h | [9]; CA1, 48 h | Candida tropicalis 156; 24 h | Candida tropicalis 156; 48 h | [10]; 24 h | [10]; 48 h | [11]; 72 h | [11]; 120 h | [12]; 24 h | [12]; 48 h | [13]; 24 h | [13]; 48 h | Candida krusei E28; CK2, 24 h | Candida krusei E28; CK2, 48 h

R-3-methyl-1-[1-(ethoxyethoxycarbonyl)-1-methylmethoxycarbonylmethyl]imidazolium octyl sulphate [KG173]
>1000 µM: [1]; CA2, 24 h | [1]; CA2, 48 h | [2]; 24 h | [2]; 48 h | [3]; 24 h | [3]; 48 h | [4]; 24 h | [4]; 48 h | Candida glabrata 20/l; 24 h | Candida glabrata 20/l; 48 h | [5]; 24 h | [5]; 48 h | Candida krusei ATCC 6258; CK1, 24 h | Candida krusei ATCC 6258; CK1, 48 h | [6]; 24 h | [6]; 48 h | Absidia corymbifera 272; 24 h | Absidia corymbifera 272; 48 h | [7]; 24 h | [7]; 48 h | [8]; 24 h | [8]; 48 h | Escherichia coli CCM4517; 24 h | Escherichia coli CCM4517; 48 h | [9]; CA1, 24 h | [9]; CA1, 48 h | Candida tropicalis 156; 24 h | Candida tropicalis 156; 48 h | [10]; 24 h | [10]; 48 h | [11]; 72 h | [11]; 120 h | [12]; 24 h | [12]; 48 h | [13]; 24 h | [13]; 48 h | Candida krusei E28; CK2, 24 h | Candida krusei E28; CK2, 48 h

COC(=O)[C@@H](OC(=O)C[n+]1ccn(C)c1)c1ccccc1 [KG91, S-3-methyl-1-[1-(methoxycarbonyl)-1-phenylmethoxycarbonylmethyl]imidazolium bromide]
>1000 µM: [1]; CA2, 24 h | [1]; CA2, 48 h | [2]; 24 h | [2]; 48 h | [3]; 24 h | [3]; 48 h | [4]; 24 h | [4]; 48 h | Candida glabrata 20/l; 24 h | Candida glabrata 20/l; 48 h | [5]; 24 h | [5]; 48 h | Candida krusei ATCC 6258; CK1, 24 h | Candida krusei ATCC 6258; CK1, 48 h | [6]; 24 h | [6]; 48 h | Absidia corymbifera 272; 24 h | Absidia corymbifera 272; 48 h | [7]; 24 h | [7]; 48 h | [8]; 24 h | [8]; 48 h | Escherichia coli CCM4517; 24 h | Escherichia coli CCM4517; 48 h | [9]; CA1, 24 h | [9]; CA1, 48 h | Candida tropicalis 156; 24 h | Candida tropicalis 156; 48 h | [10]; 24 h | [10]; 48 h | [11]; 72 h | [11]; 120 h | [12]; 24 h | [12]; 48 h | [13]; 24 h | [13]; 48 h | Candida krusei E28; CK2, 24 h | Candida krusei E28; CK2, 48 h

COC(=O)C(OC(=O)C[n+]1ccn(C)c1)c1ccccc1 (stereo not drawn) [KG86, RS-3-methyl-1-[1-(methoxycarbonyl)-1-phenylmethoxycarbonylmethyl]imidazolium octyl sulphate]
>1000 µM: [2]; 24 h | [3]; 24 h | [4]; 24 h | Candida glabrata 20/l; 24 h | [5]; 24 h | Candida krusei ATCC 6258; CK1, 24 h | [6]; 24 h | Absidia corymbifera 272; 24 h | Escherichia coli CCM4517; 24 h | [9]; CA1, 24 h | Candida tropicalis 156; 24 h | [10]; 24 h | [11]; 72 h | [12]; 24 h | [13]; 24 h

From patent publication US8785655B2, “Ionic liquid solvents” (Dublin City University, priority 2009, dated 2014)
